{"source": "patent US7323541B2", "about": "“Polypeptide DNA thereof and use of the same” (Takeda Pharmaceutical Company Limited, priority 2001, dated 2008)", "key": {"[1]": {"molecular_target": "T1, TGR23-2 expressing CHO cells (Homo sapiens, UniProt Q6W5P4, N107I/Q344R)", "T1 construct": "the clones having the cDNA of TGR23-2, which is contained in pTB2174, were selected; expressed in transfected cells; host or cells: hamster CHO/dhfr- cells, vector pAKKO-111H (pAKKO-TGR23-2)", "T1 sequence (Q6W5P4 1-371 N107I/Q344R)": "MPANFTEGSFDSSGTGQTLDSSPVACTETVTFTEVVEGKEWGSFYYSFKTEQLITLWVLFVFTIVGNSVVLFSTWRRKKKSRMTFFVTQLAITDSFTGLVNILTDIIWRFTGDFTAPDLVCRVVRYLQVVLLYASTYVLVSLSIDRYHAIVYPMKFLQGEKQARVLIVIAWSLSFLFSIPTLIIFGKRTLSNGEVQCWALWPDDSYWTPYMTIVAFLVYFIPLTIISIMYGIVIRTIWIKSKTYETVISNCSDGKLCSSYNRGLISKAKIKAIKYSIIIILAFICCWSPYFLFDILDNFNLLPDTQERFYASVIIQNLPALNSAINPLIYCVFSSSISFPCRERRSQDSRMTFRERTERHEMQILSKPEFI", "test": "Enhancing activity of arachidonic acid metabolite release", "type": "cell-based", "method": "The CHO/TGR23-2 cells prepared in Example 1 and selected in Example 2 were plated on 24-well plate at 5×10^4 cells/well and cultured for 24 hours. After removing the medium, αMEM medium (pH7.4) supplemented with 0.5 μCi/ml [^3H] arachidonic acid, 10% dialyzed FBS, 20 mM HEPES and 0.5% BSA was added to the cells at 500 μl/well. Subsequently, the cells were incubated for 16 hours in the incubator. After the culture medium containing [^3H] arachidonic acid was discarded, 500 μl/well of αMEM medium (pH7.4) supplemented with 20 mM HEPES and 0.5% BSA were added, and the cells were incubated for 4 hours in the incubator. […] Three milliliters of liquid scintilator were added to the supernatant described above to measure the radioactivity. Based on this measured value, a calculation was made using the following formula, and the promoting activity of arachidonic acid metabolite release was represented by % of control. The activity of the sample-adding group was calculated using a control value configured in each plate. % of control=[…]\nX: The radioactivity in the sample-adding group\nC: The means of the radioactivity in 4 wells of control (no sample) […]"}, "[2]": {"molecular_target": "T2, TGR23-1 expressing CHO cells (Homo sapiens, UniProt Q6W5P4)", "T2 construct": "the clones having the cDNA of TGR23-1, which is contained in pTB2173, were selected; expressed in transfected cells; host or cells: hamster CHO/dhfr- cells, vector pAKKO-111H (pAKKO-TGR23-1), clones No. 49 and No. 52", "T2 sequence (Q6W5P4 1-371)": "T1 sequence (Q6W5P4 1-371 N107I/Q344R) with I107N, R344Q", "test": "Enhancing activity of intracellular cAMP production", "type": "cell-based", "method": "The CHO/TGR23-2 cells prepared in Example 1 and selected in Example 2 were plated on 24-well plate at 7×10^4 cells/well and cultured for 48 hours. The cells were washed with αMEM medium (pH7.5) containing 0.2 mM 3-isobutyl-methylxanthine, 0.05% BSA and 20 mM HEPES (hereafter, αMEM medium (pH7.5) containing 0.2 mM 3-isobutyl-methylxanthine, 0.05% BSA and 20 mM HEPES may be referred to as a reaction buffer). Subsequently, 0.5 ml of the reaction buffer was added, and the solution was incubated for 30 minutes in the incubator. The reaction buffer was removed and 0.25 ml of the reaction buffer was freshly added to the cells. Then, the cells were admixed with a sample and 0.25 ml of the reaction buffer containing 2 μM forskoline, and incubated at 37° C. for 30 minutes. Intracellular cAMP was extracted by removing the reaction solution and adding 0.5 ml of the solution for cell lysis attached with cAMP EIA Kit (Applied Biosystems). The cAMP level in the extract was quantified with the same kit. Based on this measured value, a calculation was made using the following formula, and the enhancing/inhibiting activity for cAMP production was represented by % of control. The activity of the sample-adding group was calculated using a control value configured in each plate. % of control=(X−C)/(T−C)×100\nX: The cAMP level in the sample-adding group\nT: The means of the cAMP level in 3 wells of positive control (no sample, with stimulus of forskoline)\nC: The means of the cAMP level in 3 wells of negative control (no sample, without stimulus of forskoline)\nHuman TGR23-2 ligand (1-20) prepared by the method described in Example 17 was administered to TGR23-1 expressing CHO cells and TGR23-2 expressing CHO cells at a variety of concentrations according to the method described in Example 3, and the enhancing activity of intracellular cAMP production was determined. […]"}}, "note": "Numbering of substitutions follows the chain as printed. Where no end group is shown, it is not given here."}
{"sequence": "SFRNGVGSGVKKTSFRRA [rat TGR23-2 ligand (1-18), Ser-Phe-Arg-Asn-Gly-Val-Gly-Ser-Gly-Val-Lys-Lys-Thr-Ser-Phe-Arg-Arg-Ala]", "values": [{"measurement": "enhancing activity of arachidonic acid metabolite release", "setting": "[1]", "value": "enhance the arachidonic acid metabolite release"}, {"measurement": "enhancing activity of intracellular cAMP production", "setting": "[2]; no forskolin", "value": "enhance the intracellular cAMP production"}]}
{"sequence": "SFRNGVGTGMKKTSFQRAKS [human TGR23-2 ligand (1-20)]", "values": [{"measurement": "enhancing activity of arachidonic acid metabolite release", "setting": "[1]", "value": "enhance the arachidonic acid metabolite release"}, {"measurement": "enhancing activity of intracellular cAMP production", "setting": "[2]; no forskolin", "value": "enhance the intracellular cAMP production"}, {"measurement": "enhancing activity of intracellular cAMP production", "setting": "[2]; with forskolin", "value": "clearly enhances cAMP production"}]}
